In data set [1] the test system is Canis familiaris. The data set can be described thus: Induction of PTH release in Beagle dog assessed as PTH Cmax in blood at 0.3 mg/kg, po by radioimmunoassay. In kind it is functional, Canis lupus familiaris.
Data set [2] in a line: Aqueous solubility at pH 1.0. The data set is classed as physicochemical.
Data set [3] can be described thus: Aqueous solubility at pH 6.8. In kind it is physicochemical.
The test system of data set [4] is Rattus norvegicus. The data set can be described thus: Induction of PTH release in iv dosed Wistar rat by radioimmunoassay. In kind it is functional, organism-based.
A short description of data set [5]: Oral bioavailability in rat. In kind it is ADME, organism-based. Conditions: in vivo.
Data set [6] has as its system Rattus norvegicus. As to the kind of experiment: Induction of PTH release in Wistar rat assessed as PTH Cmax in blood at 3 mg/kg, po by radioimmunoassay. In kind it is functional.
Data set [7] has as its system Canis familiaris. The data set can be described thus: Induction of PTH release in Beagle dog at 3 mg/kg, po by radioimmunoassay. The data set is classed as functional, Canis lupus familiaris.
The subject of data set [8] is Rattus norvegicus. As to the kind of experiment: Induction of PTH release in Wistar rat assessed as PTH Cmax in blood at 30 mg/kg, po by radioimmunoassay. The data set is classed as functional.
For data set [9], the target named is T1, Extracellular calcium-sensing receptor (Homo sapiens, UniProt P41180).
T1 sequence (P41180 whole entry): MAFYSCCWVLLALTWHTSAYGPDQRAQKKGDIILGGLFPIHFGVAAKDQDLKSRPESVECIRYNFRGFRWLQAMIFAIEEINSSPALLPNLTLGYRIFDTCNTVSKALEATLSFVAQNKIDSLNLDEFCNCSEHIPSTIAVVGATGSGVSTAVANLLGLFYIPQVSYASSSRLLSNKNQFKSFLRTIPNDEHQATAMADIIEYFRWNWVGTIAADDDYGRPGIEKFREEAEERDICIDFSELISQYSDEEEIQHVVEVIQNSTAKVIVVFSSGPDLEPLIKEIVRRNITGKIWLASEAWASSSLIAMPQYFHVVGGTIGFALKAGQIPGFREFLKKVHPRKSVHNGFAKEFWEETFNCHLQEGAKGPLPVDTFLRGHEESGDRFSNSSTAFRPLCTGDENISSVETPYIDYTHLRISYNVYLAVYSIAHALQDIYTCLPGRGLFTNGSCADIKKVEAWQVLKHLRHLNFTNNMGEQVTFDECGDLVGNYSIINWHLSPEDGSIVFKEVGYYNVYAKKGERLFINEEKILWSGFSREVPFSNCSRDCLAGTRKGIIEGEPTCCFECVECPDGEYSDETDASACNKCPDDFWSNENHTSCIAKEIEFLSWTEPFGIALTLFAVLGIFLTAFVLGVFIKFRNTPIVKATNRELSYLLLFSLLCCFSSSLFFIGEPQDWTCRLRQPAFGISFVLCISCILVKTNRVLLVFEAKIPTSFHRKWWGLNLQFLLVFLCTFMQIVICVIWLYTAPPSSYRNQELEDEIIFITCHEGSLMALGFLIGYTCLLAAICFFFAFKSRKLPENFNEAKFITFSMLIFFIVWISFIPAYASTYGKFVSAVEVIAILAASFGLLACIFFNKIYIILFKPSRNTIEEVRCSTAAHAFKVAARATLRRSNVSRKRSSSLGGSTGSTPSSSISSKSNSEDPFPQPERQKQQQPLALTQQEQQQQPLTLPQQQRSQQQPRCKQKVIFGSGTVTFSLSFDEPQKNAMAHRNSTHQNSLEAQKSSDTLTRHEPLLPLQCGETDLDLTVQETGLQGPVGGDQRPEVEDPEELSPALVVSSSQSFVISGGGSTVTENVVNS
As to the kind of experiment: Antagonist activity at human CaSR expressed in CCL39 cells assessed as inhibition of extracellular calcium-induced intracellular calcium transient by FLIPR assay. The data set is classed as functional, cell-based. (Calcium flux is commonly read through the fluorescence of an indicator in the cells.)

In brackets after ≈: the same amount, converted by molar mass. Activity calls are given as the source filed them. No cut-off for these calls is given here.

For orientation: solubility means the concentration that dissolves in the medium under given conditions. A high value points to a readily soluble substance. For orientation: bioavailability means dose-corrected exposure relative to a reference, in per cent. A low value points to poor availability. Broadly, the IC50 is the midpoint of a concentration-inhibition curve. Take `C#CCOc1ccc2c(c1)c(-c1ccc(C(C)C)cc1)nc(=O)n2C(C)C`: the Activity in the data set on Canis familiaris [1] came to 300 pgequiv/ml; with Rattus norvegicus [6], 280 pgequiv/ml; in the data set with Canis familiaris [7] it was 50 pg·h/mL; in the data set with Rattus norvegicus [8], 150 pgequiv/ml. Moreover, the solubility in data set [2] and in [3] was 20 µg/mL (≈ 55.5 µM) each time. Also, the result with Rattus norvegicus [4] was Active. Also, the bioavailability in [5] was 20%. Also, the IC50 in data set [9] amounted to 9 nM.

(Values after ChEMBL document CHEMBL1157601, “1-Alkyl-4-phenyl-6-alkoxy-1H-quinazolin-2-ones: a novel series of potent calcium-sensing receptor antagonists” (J Med Chem, 2010).)
